Source: US7981890B2, “Phthalazinone derivatives” (AstraZeneca AB, priority 2007, dated 2011)
In brackets after ≈: the same amount, converted by molar mass.

How the values were obtained:
HeLa cells = test: Potentiation Factor (PF50), MMS growth inhibition, SRB assay; type: cell-based; settings: with MMS, ratio of IC50 control / IC50 with PARP inhibitor; for mean PF50 at 200 nM: compound at 200 nM; for mean PF50 at 30 nM: compound at 30 nM
Description: The Potentiation Factor (PF50) for compounds is calculated as a ratio of the IC50 of control cell growth divided by the IC50 of cell growth+PARP inhibitor. Growth inhibition curves for both control and compound treated cells are in the presence of the alkylating agent methyl methanesulfonate (MMS). […] The concentrations of MMS were over a range from 0 to 10 μg/ml.
Cell growth was assessed using the sulforhodamine B (SRB) assay (Skehan, P., et al., (1990) New calorimetric cytotoxicity assay for anticancer-drug screening. J. Natl. Cancer Inst. 82, 1107-1112). 2,000 HeLa cells were seeded into each well of a flat-bottomed 96-well microtiter plate in a volume of 100 μl and incubated for 6 hours at 37° C. […] Cells were allowed to grow for a further 1 hour before the addition of MMS at a range of concentrations (typically 0, 1, 2, 3, 5, 7 and 10 μg/ml) to either untreated cells or PARP inhibitor treated cells. Cells treated with PARP inhibitor alone were used to assess the growth inhibition by the PARP inhibitor.
Cells were left for a further 16 hours before replacing the media and allowing the cells to grow for a further 72 hours at 37° C. The media was then removed and the cells fixed with 100 μl of ice cold 10% (w/v) trichloroacetic acid. The plates were incubated at 4° C. for 20 minutes and then washed four times with water. Each well of cells was then stained with 100 μl of 0.4% (w/v) SRB in 1% acetic acid for 20 minutes before washing four times with 1% acetic acid. Plates were then dried for 2 hours at room temperature. The dye from the stained cells was solubilized by the addition of 100 μl of 10 mM Tris Base into each well. Plates were gently shaken and left at room temperature for 30 minutes before measuring the optical density at 564 nm on a Microquant microtiter plate reader.

Solubility assay = type: physicochemical; settings: thermodynamic from solid; water; 20 hours at room temperature
Description: A typical assay that may be used to assess the solubility of the compounds of the present invention is as follows. The solubility of the compound is assessed in water and phosphate-buffered saline (pbs) at pH 7.4. The samples are all allowed to equilibrate in the solvent (with shaking) for 20 hours at room temperature. After that period, the samples will be visually examined to determine the presence/absence of un-dissolved solid. The samples will be centrifuged or filtered as necessary to remove insoluble material, and the solution analysed to determine solubility of the DS, diluting both aqueous and DMSO samples to a similar concentration with DMSO. The area of the peak obtained by HPLC (using the diode array detector) from the sample will be compared to the area of the peak from the DMSO solution (diluted to the same concentration as the sample) and quantified taking into account the weight of sample taken for initial dissolution. The assumption is made that the sample will be completely soluble in DMSO at the levels used for testing.
Comparing the ratio of the peak areas, and knowing the concentration of the original samples, the solubility may be calculated.
About 1 mg of the sample is weighed accurately into a 4-ml glass vial and exactly 1.0 ml of water, aqueous buffer or DMSO, is added to it by pipette. Each vial is ultrasonicated for up to 2 minutes to assist solublisation of the solid. The samples are retained at room temperature for 20 hours, shaking on an orbital shaker. The vials are examined after this period to determine the presence/absence of un-dissolved solid. The samples should be centrifuged, or filtered through a 0.45 μm filter, to remove insoluble material if necessary, and the filtrate analysed to determine concentration of the compound in solution, after diluting all samples as appropriate with DMSO. 20 μl is injected onto the HPLC using the method shown below, injecting all samples in duplicate. The maximum solubility that can be determined using this method is nominally 1.0 mg/ml, the weight taken divided by the volume of solvent used. […]

[1] = tested on: BRCA2 deficient (VC8) cells; test: VC8 assay, growth inhibition (SRB); type: cell-based, hamster; settings: V-C8
Description: (§1) In order to assess the growth inhibitory action of compounds on BRCA2 deficient (VC8−hamster line) and BRAC2 complemented (VC8+BAC) cells the following assay was used to determine GI50 values.
500 VC8 cells or 200 VC8+BAC cells were seeded into each well of a flat-bottomed 96-well microtiter plate in a volume of 90 μl and incubated for 4-6 hours at 37° C. All compounds were diluted in media (Dulbecco's Modified Eagle's Medium (DMEM), 10% Fetal Bovine Serum, Penicillin/Sretptomycin/Glutamine) and added to the cells at final concentrations of between 0 and 300 nM.
Cells were left for a further 48 hours before replacing the media with fresh media (no compound) and allowing the cells to grow for a total of 120 hours at 37° C. The medium was then removed and the cells fixed with 50 μl of ice cold 10% (w/v) tricholoracetic acid. The plates were incubated at 4° C. for 30 minutes and then washed three times with water. Each well of cells was then stained with 50 μl of 0.4% (w/v) sulforhodamine B (SRB) in 1% acetic acid for 15 minutes before washing three times with 1% acetic acid. Plates were then dried for 2 hours at room temperature. The dye from the stained cells was solubilised by the addition of 100 μl of 10 mM Tris Base into each well. Plates were then shaken and the optical density at 564 nm was measured on a Microquant microtiter plate reader. […]

[2] = tested on: BRAC2 complemented (VC8+BAC) cells; test: VC8 assay, growth inhibition (SRB), complemented cells; type: cell-based, hamster; settings: BRCA2 complemented VC8+BAC cells
Description: as §1
500 VC8 cells or 200 VC8+BAC cells were seeded into each well of a flat-bottomed 96-well microtiter plate in a volume of 90 μl and incubated for 4-6 hours at 37° C. […]
Cells were left for a further 48 hours before replacing the media with fresh media (no compound) and allowing the cells to grow for a total of 120 hours at 37° C. The medium was then removed and the cells fixed with 50 μl of ice cold 10% (w/v) tricholoracetic acid. The plates were incubated at 4° C. for 30 minutes and then washed three times with water. Each well of cells was then stained with 50 μl of 0.4% (w/v) sulforhodamine B (SRB) in 1% acetic acid for 15 minutes before washing three times with 1% acetic acid. Plates were then dried for 2 hours at room temperature. The dye from the stained cells was solubilised by the addition of 100 μl of 10 mM Tris Base into each well. Plates were then shaken and the optical density at 564 nm was measured on a Microquant microtiter plate reader.
The GI50 is calculated as the μM concentration of compound required to inhibit 50% of cell growth.

| solubility at 20 h (Solubility assay) | Compound | mean PF50 at 200 nM (HeLa cells) | mean PF50 at 30 nM (HeLa cells) | GI50 [1] | GI50 [2] |
| --- | --- | --- | --- | --- | --- |
| 500 µg/mL (≈ 1420 µM) | CC1NC(=O)N(c2cccc(Cc3n[nH]c(=O)c4c3CCCC4)c2)C1=O (stereo not shown) [Compound 6, 5-Methyl-3-[3-(4-oxo-3,4,5,6,7,8-hexahydro-phthalazin-1-ylmethyl)-phenyl]-imidazolidine-2,4-dione] | 20 | – | – | – |
| – | C[C@H]1NC(=O)N(c2cc(Cc3n[nH]c(=O)c4c3CCCC4)ccc2F)C1=O (single isomer, unassigned) [Compound 13b] | – | 9 | – | – |
| 105 µg/mL (≈ 287 µM) | CC1(C)NC(=O)N(c2cccc(Cc3n[nH]c(=O)c4c3CCCC4)c2)C1=O [Compound 15, 5,5-dimethyl-3-[3-[(4-oxo-5,6,7,8-tetrahydro-3H-phthalazin-1-yl)methyl]phenyl]imidazolidine-2,4-dione] | 2 | – | – | – |
| – | C[C@@H]1NC(=O)N(c2cc(Cc3n[nH]c(=O)c4c3CCCC4)ccc2F)C1=O (single isomer, unassigned) [Compound 13a] | – | 25 | – | – |
| 900 µg/mL (≈ 2430 µM) | CC1NC(=O)N(c2cc(Cc3n[nH]c(=O)c4c3CCCC4)ccc2F)C1=O (stereo not shown) [Compound 13, 3-[2-Fluoro-5-(4-oxo-3,4,5,6,7,8-hexahydro-phthalazin-1-ylmethyl)-phenyl]-5-methylimidazolidine-2,4-dione] | 57 | – | 0.0105 µM | 29 µM |
